Test results taken from patent US12194039B2, “Methods of treating heart failure by administering omecamtiv mecarbil” (Cytokinetics, Inc., priority 2020, dated 2025).
“Also recorded” adds a separate entry of the source. Where two headings read alike, the source gives them in different places.

Key:
CYP3A4 [1] = target: CYP3A4 (Homo sapiens, UniProt P08684); assay: Metabolism of OM by CYP enzymes; format: in vitro ADME; settings: result in words
Description: (§1) Clearance of OM after oral administration was primarily through metabolism in the liver. […] Following oral administration of radiolabeled OM to healthy subjects, approximately 49% of the dose was excreted in urine (primarily as metabolites with 8% of parent compound recovered) and 38% in feces (primarily as unchanged drug).

CYP2D6 = CYP2D6 (Homo sapiens, UniProt P10635); assay: Metabolism of OM by CYP enzymes; format: in vitro ADME; settings: result in words; listed as OM
Chain of CYP2D6 (P10635 whole entry): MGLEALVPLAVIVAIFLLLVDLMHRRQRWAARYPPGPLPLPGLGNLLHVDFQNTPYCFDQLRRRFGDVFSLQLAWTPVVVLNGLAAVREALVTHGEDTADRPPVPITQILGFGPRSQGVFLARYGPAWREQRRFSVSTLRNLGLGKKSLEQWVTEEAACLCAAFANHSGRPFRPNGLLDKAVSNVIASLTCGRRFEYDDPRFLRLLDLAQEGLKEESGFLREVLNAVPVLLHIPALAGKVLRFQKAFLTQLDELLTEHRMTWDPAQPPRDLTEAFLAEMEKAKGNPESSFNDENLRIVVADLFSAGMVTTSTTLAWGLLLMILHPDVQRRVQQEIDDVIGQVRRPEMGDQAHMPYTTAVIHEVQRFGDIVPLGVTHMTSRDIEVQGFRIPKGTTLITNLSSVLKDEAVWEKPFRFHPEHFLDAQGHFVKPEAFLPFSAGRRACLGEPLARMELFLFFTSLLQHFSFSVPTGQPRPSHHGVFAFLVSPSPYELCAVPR
Description: as §1

CYP3A4 [2] = assay: In vitro induction by OM; format: in vitro ADME; settings: result in words
Description: OM may be administered with drugs that are substrates of CYP3A4, CYP2C8, P-gp or BCRP.

P-gp = P-gp (Homo sapiens, UniProt P08183); assay: In vitro inhibition by OM; format: in vitro ADME; settings: result in words
Chain of P-gp (P08183 whole entry): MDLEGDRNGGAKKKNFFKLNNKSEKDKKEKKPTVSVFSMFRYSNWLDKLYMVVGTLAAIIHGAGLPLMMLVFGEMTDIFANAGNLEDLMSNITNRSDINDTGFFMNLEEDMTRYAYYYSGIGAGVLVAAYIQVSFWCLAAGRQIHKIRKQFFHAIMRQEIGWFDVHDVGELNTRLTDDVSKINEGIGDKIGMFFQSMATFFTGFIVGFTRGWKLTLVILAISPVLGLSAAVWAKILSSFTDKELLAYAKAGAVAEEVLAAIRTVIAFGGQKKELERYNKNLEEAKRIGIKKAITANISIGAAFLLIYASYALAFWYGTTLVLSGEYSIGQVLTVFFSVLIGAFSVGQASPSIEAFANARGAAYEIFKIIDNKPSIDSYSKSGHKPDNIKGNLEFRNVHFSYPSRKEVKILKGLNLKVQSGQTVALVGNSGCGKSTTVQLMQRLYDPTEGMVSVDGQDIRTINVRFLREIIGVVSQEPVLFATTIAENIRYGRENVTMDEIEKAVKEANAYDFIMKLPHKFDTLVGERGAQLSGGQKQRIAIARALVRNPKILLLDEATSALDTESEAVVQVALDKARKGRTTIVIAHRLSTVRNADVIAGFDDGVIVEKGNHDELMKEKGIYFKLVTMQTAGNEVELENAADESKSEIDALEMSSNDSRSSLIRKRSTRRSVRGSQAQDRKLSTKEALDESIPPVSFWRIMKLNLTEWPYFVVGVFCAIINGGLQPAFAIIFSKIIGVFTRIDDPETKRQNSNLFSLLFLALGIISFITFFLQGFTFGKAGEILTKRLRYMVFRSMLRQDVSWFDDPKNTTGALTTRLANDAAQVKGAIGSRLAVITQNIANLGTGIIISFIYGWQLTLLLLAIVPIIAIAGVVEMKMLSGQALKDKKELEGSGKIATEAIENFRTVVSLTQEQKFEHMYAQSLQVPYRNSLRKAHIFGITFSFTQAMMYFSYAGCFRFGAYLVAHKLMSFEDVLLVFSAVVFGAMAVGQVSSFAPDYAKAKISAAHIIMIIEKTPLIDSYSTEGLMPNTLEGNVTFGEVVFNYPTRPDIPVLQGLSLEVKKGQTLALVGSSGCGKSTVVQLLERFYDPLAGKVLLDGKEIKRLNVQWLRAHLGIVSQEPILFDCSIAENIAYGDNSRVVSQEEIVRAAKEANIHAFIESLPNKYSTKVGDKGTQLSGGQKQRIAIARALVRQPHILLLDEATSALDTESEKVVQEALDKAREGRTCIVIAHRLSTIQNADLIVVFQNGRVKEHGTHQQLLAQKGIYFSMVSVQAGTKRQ

[3] = tested on: patients with or without more advanced HF; format: in vivo, human; settings: for KCCQ total symptom score (TSS), increase: inpatient; for KCCQ total symptom score (TSS), increase / KCCQ total symptom score (TSS), decrease: vs placebo; for KCCQ total symptom score (TSS), decrease: outpatient
Description: Patients having more advanced heart failure (HF): In some aspects, provided is a method of treating a patient having more advanced HF by administering omecamtiv mecarbil as described herein. More advanced HF, also referred to as severe HF, refractory HF, or Stage D HF, can be determined based on a number of criteria recognized in the medical field. In some embodiments, more advanced HF refers to the published criteria from the 2018 ESC-HFA position statement (European journal of heart failure. 2018; 20:1505-1535). For the ESC-HFA criteria, patients were required to have all of 1) NYHA class III-IV symptoms, 2) a left ventricular ejection fraction 30%, 3) 2 or more hospitalizations for HF within the prior 12 months, and 4) evidence of severe functional impairment as defined by cardiopulmonary exercise testing or 6-minute walk test. In some embodiments, the hospitalization criteria is modified to one HF hospitalization within the prior 6 months In some embodiments, more advanced HF refers to patients having all of 1) NYHA class III-IV symptoms, 2) a left ventricular ejection fraction 30%, and 3) 1 or more hospitalizations for HF within the prior 6 months.
Baseline characteristics for patients classified as more advanced HF compared to those without were evaluated using appropriate summary statistics. Outcomes for patients with or without more advanced HF were compared using Cox proportional hazards models and Kaplan-Meier curves. […] Absolute event rates were described using rate per 100 patient-years. As a sensitivity analysis, the event rates and treatment effect of omecamtiv mecarbil for patients was assessed by specific advanced HF criteria met, as well as the total number of criteria met. For quality-of-life data as assessed by the Kansas City Cardiomyopathy Questionnaire Total Symptom Score (KCCQ TSS), linear regression adjusted for baseline scores was used to compare treatment effects of omecamtiv mecarbil compared to placebo. Safety and tolerability data for patients with advanced HF vs. those without were summarized using descriptive statistics. P value ≤0.05 was considered statistically significant for all analyses.

[4] = Advanced HF, week 0 to 24, OM vs placebo
[5] = Less Advanced Heart Failure, OM group
[6] = Less Advanced Heart Failure, OM vs placebo
[7] = More Advanced Heart Failure, OM group
[8] = More Advanced Heart Failure, OM vs placebo

Chain of CYP3A4 (Homo sapiens, UniProt P08684) (P08684 whole entry): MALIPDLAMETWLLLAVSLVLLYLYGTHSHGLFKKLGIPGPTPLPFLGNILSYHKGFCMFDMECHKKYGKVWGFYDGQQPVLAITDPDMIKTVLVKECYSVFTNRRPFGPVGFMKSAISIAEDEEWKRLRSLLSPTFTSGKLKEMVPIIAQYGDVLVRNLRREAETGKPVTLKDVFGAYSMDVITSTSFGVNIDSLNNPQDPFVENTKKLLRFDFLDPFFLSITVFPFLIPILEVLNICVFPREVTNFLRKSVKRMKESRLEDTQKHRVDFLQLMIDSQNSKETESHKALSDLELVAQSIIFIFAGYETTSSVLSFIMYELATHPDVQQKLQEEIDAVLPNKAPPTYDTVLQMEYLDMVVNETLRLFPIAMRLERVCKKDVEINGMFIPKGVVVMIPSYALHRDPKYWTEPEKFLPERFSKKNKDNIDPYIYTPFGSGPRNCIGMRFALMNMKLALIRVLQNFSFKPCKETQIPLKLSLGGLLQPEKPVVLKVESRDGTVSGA

With `COC(=O)N1CCN(Cc2cccc(NC(=O)Nc3ccc(C)nc3)c2F)CC1` [omecamtiv mecarbil] the “Metabolism by CYP3A4” value (CYP3A4 [1]) was “substrate”, the “Metabolism by CYP3A4” value (CYP3A4 [1]; listed as OM) was “extensively metabolized; also recorded: metabolized in vitro” and the “Metabolism by CYP2D6” value (CYP2D6) was “extensively metabolized; also recorded: metabolized in vitro”. For the same molecule, the “Induction of CYP3A4” value (CYP3A4 [2]) was “inducer”, the “Inhibition of P-gp” value (P-gp) was “inhibitor” and the Creatinine ([3]; Advanced HF, OM group, week 24) was 1.37 ± 0.55 mg/dL. The NT-proBNP ([3]; Advanced HF, OM group, week 24) was 1837 [856, pg/ml, the “Systolic BP” value ([3]; Advanced HF, OM group, week 24) was 116.7 ± 17.3 mm Hg and the “NT-proBNP (Ratio)” value [3, 4] was 0.86. For the same molecule, the “Troponin I (Ratio)” value [3, 4] was 1.30, the “All-cause Death (%)” value [3, 5] was “(23%)” and the “All-cause Death Rate” value [3, 5] was 12.4 per 100 patient years. The “All-cause Death n/N” value [3, 5] was 692/3014, the “HF Hosp as 1st Primary Event (%)” value [3, 5] was “(24%)” and the “HF Hosp as 1st Primary Event Rate” value [3, 5] was 15.0 per 100 patient years. The “HF Hosp as 1st Primary Event n/N” value [3, 5] was 722/3014, the “Heart Failure Hospitalization (%)” value [3, 5] was “(25%)” and the “Heart Failure Hospitalization Rate” value [3, 5] was 15.4 per 100 patient years. The “Heart Failure Hospitalization n/N” value [3, 5] was 746/3014, the “Primary Outcome (%)” value [3, 5] was “(34%)” and the “Primary Outcome Rate” value [3, 5] was 21.1 per 100 patient years. For the same molecule, the “Primary Outcome n/N” value [3, 5] was 1013/3014, the “Urgent Outpatient Visit as 1st Primary Event (%)” value [3, 5] was “(2%)” and the “Urgent Outpatient Visit as 1st Primary Event Rate” value [3, 5] was 1.1 per 100 patient years. For the same molecule, the “Urgent Outpatient Visit as 1st Primary Event n/N” value [3, 5] was 52/3014, the “All-cause Death ARR” value [3, 6] was 0.6 per 100 patient years and the “All-cause Death HR (95% CI)” value [3, 6] was 1.05 (0.94, 1.17);. For the same molecule, the “Heart Failure Hospitalization ARR” value [3, 6] was −0.1 per 100 patient years, the “Heart Failure Hospitalization HR (95% CI)” value [3, 6] was 1.01 (0.91, 1.12); and the “Primary Outcome ARR” value [3, 6] was 0.2 per 100 patient years. For the same molecule, the “Primary Outcome HR (95% CI)” value [3, 6] was 0.99 (0.91, 1.08);, the “All-cause Death (%)” value [3, 7] was “(34%)” and the “All-cause Death Rate” value [3, 7] was 20.1 per 100 patient years. The “All-cause Death n/N” value [3, 7] was 365/1081, the “HF Hosp as 1st Primary Event (%)” value [3, 7] was “(35%)” and the “HF Hosp as 1st Primary Event Rate” value [3, 7] was 25.9 per 100 patient years. For the same molecule, the “HF Hosp as 1st Primary Event n/N” value [3, 7] was 385/1106, the “Heart Failure Hospitalization (%)” value [3, 7] was “(36%)” and the “Heart Failure Hospitalization Rate” value [3, 7] was 26.2 per 100 patient years. For the same molecule, the “Heart Failure Hospitalization n/N” value [3, 7] was 385/1081, the “Primary Endpoint (%)” value [3, 7] was “(46%)” and the “Primary Endpoint Rate” value [3, 7] was 34.3 per 100 patient years. The “Primary Endpoint n/N” value [3, 7] was 510/1106, the “Urgent Outpatient Visit as 1st Primary Event (%)” value [3, 7] was “(2%)” and the “Urgent Outpatient Visit as 1st Primary Event Rate” value [3, 7] was 1.2 per 100 patient years. For the same molecule, the “Urgent Outpatient Visit as 1st Primary Event n/N” value [3, 7] was 18/1106, the “All-cause Death ARR” value [3, 8] was 1.5 per 100 patient years and the “All-cause Death HR (95% CI)” value [3, 8] was 0.92 (0.80, 1.06);. For the same molecule, the “Heart Failure Hospitalization ARR” value [3, 8] was 5.2 per 100 patient years, the “Heart Failure Hospitalization HR (95% CI)” value [3, 8] was 0.84 (0.73, 0.96); and the “Primary Endpoint ARR” value [3, 8] was 8.3 per 100 patient years. The “Primary Endpoint HR (95% CI)” value [3, 8] was 0.80 (0.71, 0.90);, the NT-proBNP ([3]; Non-Advanced HF, OM group, week 24) was 1274 [531, pg/ml and the “NT-proBNP (Ratio)” value ([3]; Non-Advanced HF, week 0 to 24, OM vs placebo) was 0.91. The “KCCQ total symptom score (TSS), increase” value ([3]; advanced HF) was 1.1, the “KCCQ total symptom score (TSS), decrease” value ([3]; advanced HF) was 1.7 and the Myocardial infarctions ([3]; human, in vivo) was 3.8%. The “Serious adverse events related to ventricular tachyarrhythmias” value ([3]; human, in vivo) was 7.9%, the Strokes ([3]; human, in vivo) was 1.6% and the “Treatment emergent serious adverse events” value ([3]; human, in vivo) was 67%. The Circulating cardiac troponin ([3]; in vivo) was “small increase”, the Creatinine ([3]; in vivo) was 1.29 ± 0.49 mg/dL and the “Heart rate lowering, difference in change vs placebo” value ([3]; in vivo) was 1.9 beats/minute. The “Systolic BP” value ([3]; in vivo) was 118.4 ± 16.8 mm Hg, the “Troponin I (Ratio)” value ([3]; in vivo) was 1.24 and the NT-proBNP ([3]; more advanced HF population, result in words) was “significant decrease”. For the same molecule, the “KCCQ total symptom score (TSS), increase” value ([3]; non-advanced HF) was 3.3, the “KCCQ total symptom score (TSS), decrease” value ([3]; non-advanced HF) was 0.2 and the “Cardiovascular mortality, hazard ratio” value ([3]; patients with less advanced HF) was 1.10. For the same molecule, the “Absolute risk reduction, primary endpoint” value ([3]; patients with more advanced HF) was 8.3 events/100 patient-years, the “Cardiovascular mortality, hazard ratio” value ([3]; patients with more advanced HF) was 0.88 and the “Primary endpoint, hazard ratio” value ([3]; patients with more advanced HF) was 0.80. For the same molecule, the “Relative risk reduction, primary endpoint” value ([3]; patients with more advanced HF) was 20%, the “Primary endpoint, hazard ratio” value ([3]; patients without more advanced HF) was 0.99 and the NNT ([3]; primary endpoint, patients with more advanced HF) was 12.
